Test [1] concerns the target T1, rat adrenergic α1B receptor (Rattus norvegicus, UniProt P15823).
T1 construct: rat adrenergic α1B receptor obtained from Wistar Rat liver; from tissue; host or cells: Wistar rat liver
T1 sequence (P15823 1-515): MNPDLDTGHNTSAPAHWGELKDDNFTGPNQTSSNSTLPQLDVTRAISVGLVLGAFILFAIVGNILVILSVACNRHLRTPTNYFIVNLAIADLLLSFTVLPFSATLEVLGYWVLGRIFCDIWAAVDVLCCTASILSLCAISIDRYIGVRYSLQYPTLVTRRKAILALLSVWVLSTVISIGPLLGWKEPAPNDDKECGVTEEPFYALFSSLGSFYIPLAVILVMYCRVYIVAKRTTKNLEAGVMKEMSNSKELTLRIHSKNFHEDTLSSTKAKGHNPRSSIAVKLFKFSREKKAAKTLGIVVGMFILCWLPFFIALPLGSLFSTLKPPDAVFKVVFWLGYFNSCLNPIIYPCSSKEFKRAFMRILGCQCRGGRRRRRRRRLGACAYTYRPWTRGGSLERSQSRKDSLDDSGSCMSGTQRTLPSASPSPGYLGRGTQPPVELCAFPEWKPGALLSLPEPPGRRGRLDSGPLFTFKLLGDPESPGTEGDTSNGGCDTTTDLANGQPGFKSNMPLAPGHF
The test is described as follows: Radioligand binding, adrenergic α1B receptor ([3H]Prazosin). Conditions: 0.1 μM compound, Wistar rat liver, read-out: Percentage inhibition of ligand binding, Adrenergic α1B. The procedure: To evaluate in radioligand binding assays the activity of compounds, rat adrenergic α1B receptor obtained from Wistar Rat liver (Garcia-S' ainz, J. et al, Biochem. Biophys. Res. Commun. 186:760, 1992; Michel, A. et al, Br. J. Pharmacol. 98:883, 1989) in a modified Tris-HCl buffer (50 mM Tris-HCl buffer, pH 7.4, 0.5 mM EDTA) was used. Compounds were incubated with 0.25 nM [^3H]Prazosin for 60 min at […]. Non-specific binding was estimated in the presence of 10 μM phentolamine. Receptor proteins were filtered and washed, the filters were then counted to determine [^3H]Prazosin specifically bound. Compounds were screened at 1 μM or lower, using 1% DMSO as vehicle. Compounds were tested in this biochemical assay and percent inhibition of specific binding was determined. Biochemical assay results are presented as the percent inhibition of specific binding in Table 2.

In test [2] the target is T2, human recombinant adrenergic α1D receptor (Homo sapiens, UniProt P25100).
T2 construct: expressed in transfected cells; host or cells: HEK-293
T2 sequence (P25100 1-572): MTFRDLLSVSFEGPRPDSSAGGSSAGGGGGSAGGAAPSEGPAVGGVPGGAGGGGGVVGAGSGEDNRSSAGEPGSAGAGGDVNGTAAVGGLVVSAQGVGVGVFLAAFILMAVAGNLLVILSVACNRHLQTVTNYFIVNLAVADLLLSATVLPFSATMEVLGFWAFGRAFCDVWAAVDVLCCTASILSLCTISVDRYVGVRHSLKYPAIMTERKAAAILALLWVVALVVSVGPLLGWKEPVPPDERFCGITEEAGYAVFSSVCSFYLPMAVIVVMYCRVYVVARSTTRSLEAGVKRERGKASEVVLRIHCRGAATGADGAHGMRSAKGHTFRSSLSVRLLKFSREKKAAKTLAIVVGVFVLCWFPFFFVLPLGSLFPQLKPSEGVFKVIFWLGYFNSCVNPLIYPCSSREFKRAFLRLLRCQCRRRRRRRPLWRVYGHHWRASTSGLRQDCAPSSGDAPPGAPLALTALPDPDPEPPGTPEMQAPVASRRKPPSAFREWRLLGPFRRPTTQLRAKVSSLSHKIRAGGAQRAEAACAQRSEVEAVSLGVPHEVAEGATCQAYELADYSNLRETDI
Description: Radioligand binding, adrenergic α1D receptor ([3H]Prazosin). The note with it: 0.1 μM compound; HEK-293 cells; 0.6 nM [3H]Prazosin; read-out: Percentage inhibition of ligand binding, Adrenergic α1D. The protocol: Compounds were incubated with 0.6 nM [3H]Prazosin for 60 min at 25° C. Non-specific binding was estimated in the presence of 10 μM phentolamine. Receptor proteins were filtered and washed, the filters were then counted to determine [3H]Prazosin specifically bound. Compounds were screened at 1 μM or lower, using 1% DMSO as vehicle. Biochemical assay results are presented as the percent inhibition of specific binding in Table 2.

Test [3] has as its target T3, human recombinant adrenergic α2A receptor (Homo sapiens, UniProt P08913).
T3 construct: expressed in transfected cells; host or cells: insect Sf9 cells
T3 sequence (P08913 1-465): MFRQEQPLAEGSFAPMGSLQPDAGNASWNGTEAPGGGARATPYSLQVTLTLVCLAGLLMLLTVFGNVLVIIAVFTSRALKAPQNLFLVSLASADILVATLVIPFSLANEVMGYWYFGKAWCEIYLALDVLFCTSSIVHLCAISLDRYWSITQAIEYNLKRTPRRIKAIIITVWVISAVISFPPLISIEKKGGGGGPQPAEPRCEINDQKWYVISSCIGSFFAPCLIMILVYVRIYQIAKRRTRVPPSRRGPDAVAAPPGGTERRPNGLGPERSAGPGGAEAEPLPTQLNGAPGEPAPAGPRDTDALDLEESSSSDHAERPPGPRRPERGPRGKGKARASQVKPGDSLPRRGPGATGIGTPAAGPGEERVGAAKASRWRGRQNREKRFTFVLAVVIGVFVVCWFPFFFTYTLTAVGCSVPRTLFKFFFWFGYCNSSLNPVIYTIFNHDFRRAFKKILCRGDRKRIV
The test is described as follows: Radioligand binding, adrenergic α2A receptor ([3H]MK-912). The note with it: 0.1 μM compound; Sf9 cells; 1 nM [3H]MK-912; read-out: Percentage inhibition of ligand binding, Adrenergic α2A. The protocol:
To evaluate in radioligand binding assays the activity of compounds, human recombinant adrenergic α2A receptor expressed in insect Sf9 cells (Uhlen, S. et al, J. Pharmacol. Exp. Ther. 271:1558, 1994) in a modified Tris-HCl buffer (50 mM Tris-HCl, pH 7.4, 12.5 mM MgCl2, 2 mM EDTA) was used. Compounds were incubated with 1 nM [^3H]MK-912 for 60 min at 25° C. MK912 is (2S-trans)-1,3,4,5′,6,6′,7,12b-octahydro-1′,3′-dimethyl-spiro[2H-benzofuro[2,3-a]quinolizine-2,4′(1′H)-pyrimidin]-2′(3′H)-one hydrochloride Non-specific binding was estimated in the presence of 10 μM WB-4101 (2-(2,6-Dimethoxyphenoxyethyl)aminoethyl-1,4-benzodioxane hydrochloride). Receptor proteins were filtered and washed, the filters were then counted to determine [^3H]MK-912 specifically bound. Compounds were screened at 1 μM or lower, using 1% DMSO as vehicle. Compounds were tested in this biochemical assay and percent inhibition of specific binding was determined. Biochemical assay results are presented as the percent inhibition of specific binding in Table 2.

Test [4] deals with T4, human recombinant adrenergic α2B receptor (Homo sapiens, UniProt P18089).
T4 construct: expressed in transfected cells; host or cells: CHO-K1
T4 sequence (P18089 1-450): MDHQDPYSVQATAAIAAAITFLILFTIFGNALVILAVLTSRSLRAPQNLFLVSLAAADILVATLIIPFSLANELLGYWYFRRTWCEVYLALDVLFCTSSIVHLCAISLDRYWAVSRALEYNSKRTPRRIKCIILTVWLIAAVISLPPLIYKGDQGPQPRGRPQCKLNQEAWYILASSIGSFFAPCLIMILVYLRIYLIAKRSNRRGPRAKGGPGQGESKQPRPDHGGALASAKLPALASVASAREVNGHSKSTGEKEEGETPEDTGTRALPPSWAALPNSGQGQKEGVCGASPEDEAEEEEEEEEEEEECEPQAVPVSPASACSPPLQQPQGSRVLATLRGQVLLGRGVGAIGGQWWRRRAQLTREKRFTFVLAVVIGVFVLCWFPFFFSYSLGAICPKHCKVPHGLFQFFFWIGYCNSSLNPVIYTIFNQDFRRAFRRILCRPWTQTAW
Description: Radioligand binding, adrenergic α2B receptor ([3H]Rauwolscine). The note with it: 0.1 μM compound, CHO-K1 cells, read-out: Percentage inhibition of ligand binding, Adrenergic α2B. The protocol: To evaluate in radioligand binding assays the activity of compounds, human recombinant adrenergic α2B receptor expressed in Chinese hamster ovary (CHO) K1 cells (Uhlen, S. et al, Eur. J. Pharmacol. 343(1):93, 1998) in a modified Tris-HCl buffer (50 mM Tris-HCl, pH 7.4, 12.5 mM MgCl2, 1 mM EDTA, 0.2% BSA) was used. Compounds were incubated with 2.5 nM [^3H]Rauwolscine for 60 min at 25° C. Non-specific binding was estimated in the presence of 10 μM Prazosin. Receptor proteins were filtered and washed, the filters were then counted to determine [^3H]Rauwolscine specifically bound. Compounds were screened at 1 μM or lower, using 1% DMSO as vehicle. Compounds were tested in this biochemical assay and percent inhibition of specific binding was determined. Biochemical assay results are presented as the percent inhibition of specific binding in Table 2.

Take `Cc1ccc2c(c1)c1c(n2-c2cccc(-c3ccnn3C)c2)CCN(C)C1` [Compound No. 66, 2,8-dimethyl-5-(3-(1-methyl-1H-pyrazol-5-yl)phenyl)-2,3,4,5-tetrahydro-1H-pyrido[4,3-b]indole]: the inhibition at 0.1 µM is 13% in test [1], 11% in test [2], 39% in test [3] and 18% in test [4].
For the compound `Cc1ccc2c(c1)c1c(n2-c2ccc(-c3sccc3C)cn2)CCN(C)C1` [Compound No. 148, 2,8-dimethyl-5-(5-(3-methylthiophen-2-yl)pyridin-2-yl)-2,3,4,5-tetrahydro-1H-pyrido[4,3-b]indole], the inhibition at 0.1 µM was found to be 63% in test [1], 68% in test [2], 50% in test [3] and 90% in test [4].
On to `Cc1ccc2c(c1)c1c(n2-c2cccc(-c3ccc(C)s3)c2)CCN(C)C1` [Compound No. 64, 2,8-dimethyl-5-(3-(5-methylthiophen-2-yl)phenyl)-2,3,4,5-tetrahydro-1H-pyrido[4,3-b]indole], for which the inhibition at 0.1 µM in test [1] is 10%; in test [2], -1%; in test [3], 25%; in test [4], 1%.
In the same order, the values of `CNC(=O)c1ccc(-c2cscc2-n2c3c(c4cc(C)ccc42)CN(C)CC3)cn1` [Compound No. 73] are 64%, 83%, 16% and 94%.
Turning to `Cc1cc(C)c2c(c1)c1c(n2-c2cccc3ncccc23)CCN(C)C1` [Compound 47], the inhibition at 0.1 µM in test [1] amounted to 5%; in test [2], 3%; in test [3], 62%; in test [4], 6%.
Take `CC(=O)Nc1ccc(-c2cscc2-n2c3c(c4cc(C)ccc42)CN(C)CC3)cn1` [Compound 56]: the inhibition at 0.1 µM in test [1] came out at 36%; in test [2], 65%; in test [3], 4%; in test [4], 90%.
Consider `CNC(=O)c1cc(-n2c3c(c4cc(C)ccc42)CN(C)CC3)cs1` [Compound No. 78], for which the inhibition at 0.1 µM is 8% in test [1], 21% in test [2], 63% in test [3] and 86% in test [4].
Consider `Cc1ccc2c(c1)c1c(n2-c2ccccc2-c2c(C)noc2C)CCN(C)C1` [Compound No. 82, 4-(2-(2,8-dimethyl-3,4-dihydro-1H-pyrido[4,3-b]indol-5(2H)-yl)phenyl)-3,5-dimethylisoxazole], for which the inhibition at 0.1 µM in test [1] came out at 14%; in test [2], 14%; in test [3], 30%; in test [4] it was 21%.
For the compound `Cc1csc(-c2ccccc2-n2c3c(c4cc(C)ccc42)CN(C)CC3)c1` [Compound 36], the inhibition at 0.1 µM in test [1] worked out at 13%; in test [2] it was 26%; in test [3] it was 90%; in test [4] it was 79%.
In the same order, the values of `Cc1ccc2c(c1)c1c(n2-c2ccoc2)CCN(C)C1` [Compound 15, 5-furan-3-yl-2,8-dimethyl-2,3,4,5-tetrahydro-1H-pyrido[4,3-b]indole] are 35%, 19%, 10% and 30%.
Turning to `Cc1ccc2c(c1)c1c(n2-c2ccc(-c3cncc4ccccc34)cn2)CCN(C)C1` [Compound No. 135, 5-(5-(isoquinolin-4-yl)pyridin-2-yl)-2,8-dimethyl-2,3,4,5-tetrahydro-1H-pyrido[4,3-b]indole], the inhibition at 0.1 µM in test [1] worked out at 59%; in test [2], 64%; in test [3], 56%; in test [4], 99%.
